Tests used:
[1] = tested on: ECHCG (Barnyardgrass); experiment: Preemergence herbicidal evaluation; format: in vivo, Echinochloa crus-galli; details: rated 4-5 weeks after treatment
In short: (§1)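 Sown cups got a single aqueous acetone spray of test compound (roughly 0.0156–0.500 kg/ha) before seedlings emerged. Evaluation, 4–5 weeks on, used a 0–9 visual scale covering plant stand, vigor, size, malformation, chlorosis and general appearance compared with controls.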

[2] = tested on: ORYSAT (Rice, Tebonnet); experiment: Postemergence herbicidal evaluation; format: in vivo, Oryza sativa, (L.) Tebonnet; details: postemergence
In short: (§2)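 Herbicidal effect was judged by eye on a 0–9 scale covering stand, vigor, deformity, size and chlorosis, compared with controls, four to five weeks after seedlings about two weeks old were sprayed (40 psi, ~0.0156–0.500 kg/ha).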

[3] = tested on: SETVI (Foxtail, Green); experiment: Preemergence herbicidal evaluation; format: in vivo, Setaria viridis; details: rated 4-5 weeks after treatment
In short: as §1

[4] = tested on: SAGPY (Arrowhead (Pygmaea)); experiment: Postemergence weed control under flooded paddy conditions; format: in vivo, Sagittaria pygmaea; details: postemergence weeds, 3-4 weeks after treatment
In short: (§3)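 Herbicidal effect is judged by eye on a 0–9 scale versus control, 3–4 weeks after dosing. Dosing is into flood water kept 1.5–3 cm over the soil, at about 0.0313–0.500 kg/ha in aqueous/acetone 50/50 v/v, on 3–5 cm weeds and 1.5–2.5-leaf rice seedlings.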

[5] = tested on: SETVI (Foxtail, Green); experiment: Postemergence herbicidal evaluation; format: in vivo, Setaria viridis; details: postemergence
In short: as §2

[6] = tested on: ECHORC (Watergrass (Calif.)); experiment: Preemergence weed control under flooded paddy conditions; format: in vivo, Echinochloa oryzoides; details: rated 3-4 weeks after treatment
In short: (§4)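 Herbicidal effect is scored visually on a 0-9 scale against an untreated control, three to four weeks after compounds are pipetted into the flood water (1.5 to 3 cm deep) over seeds planted in silt loam at 0.5 cm depth. Rates: about 0.0313 to 0.500 kg/ha.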

[7] = tested on: ZEAMX (Corn, Field); experiment: Preemergence herbicidal evaluation; format: in vivo, Zea mays; details: rated 4-5 weeks after treatment
In short: as §1

[8] = tested on: CYPIR (Rice Flatsedge); experiment: Postemergence weed control under flooded paddy conditions; format: in vivo, Cyperus iria; details: postemergence weeds, 3-4 weeks after treatment
Source text: Results of herbicide evaluation are expressed on a rating scale (0-9). The scale is based upon a visual observation of plant stand, vigor, malformation, size, chlorosis and overall plant appearance as compared with a control.
Plastic containers containing weeds which are 3 to 5 cm tall and rice seedlings at the 1.5 to 2.5 leaf stage are flooded with water. The water is maintained at 1.5 to 3 cm above the soil surface for the duration of the experiment. Test compounds are applied as aqueous/ acetone mixtures 50/50 v/v directly into the flood water to provide the equivalent of about 0.0313 to 0.500 kg/ha of active ingredient. The treated containers are placed on greenhouse benches and cared for in accordance with conventional greenhouse procedures. Three to four weeks after treatment, the test is terminated and each container is examined and herbicidal effect rated according to the rating system provided in Example 37. The compounds evaluated are reported by compound number given in Example 37.

[9] = tested on: TRZAWR (Wheat, Winter, cv Riband); experiment: Preemergence herbicidal evaluation; format: in vivo, Triticum aestivum; details: rated 4-5 weeks after treatment
In short: as §1

[10] = tested on: ECHORC (Watergrass (Calif.)); experiment: Postemergence weed control under flooded paddy conditions; format: in vivo, Echinochloa oryzoides; details: postemergence weeds, 3-4 weeks after treatment
In short: as §3

[11] = tested on: ZEAMX (Corn, Field); experiment: Postemergence herbicidal evaluation; format: in vivo, Zea mays; details: postemergence
In short: as §2

[12] = tested on: CYPIR (Rice Flatsedge); experiment: Preemergence weed control under flooded paddy conditions; format: in vivo, Cyperus iria; details: rated 3-4 weeks after treatment
In short: as §4

CCOC(=O)CN1C(=O)CN(C)C1=Nc1cc(-n2c(=O)cc(C(F)(F)F)n(C)c2=O)c(F)cc1Cl [Compound 25, Ethyl 2-{{2-chloro-5-[3,6-dihydro-3-methyl-2,6-dioxo-4-(trifluoromethyl)-1(2H)-pyrimidinyl]-4-fluorophenyl}imino}-3-methyl-5-oxo-1-imidazolidineacetate]
Preemergence herbicidal rating ECHCG ([1]; rate 0.0156 kg/ha): 0.0
Preemergence herbicidal rating ECHCG ([1]; rate 0.0313 kg/ha): 0.0
ECHCG preemergence herbicidal rating ([1]; rate 0.0625 kg/ha): 0.0
ECHCG preemergence herbicidal rating ([1]; rate 0.1250 kg/ha): 0.0
ECHCG preemergence herbicidal rating ([1]; rate 0.2500 kg/ha): 7.0
ORYSAT herbicidal rating ([2]; rate 0.0156 kg/ha): 0.5
ORYSAT herbicidal rating ([2]; rate 0.0313 kg/ha): 2.0
ORYSAT herbicidal rating ([2]; rate 0.0625 kg/ha): 2.0
Preemergence herbicidal rating SETVI ([3]; rate 0.0156 kg/ha): 0.0
Preemergence herbicidal rating SETVI ([3]; rate 0.0313 kg/ha): 0.0
SETVI preemergence herbicidal rating ([3]; rate 0.0625 kg/ha): 7.0
SETVI preemergence herbicidal rating ([3]; rate 0.1250 kg/ha): 9.0
SETVI preemergence herbicidal rating ([3]; rate 0.2500 kg/ha): 9.0
Herbicidal rating SAGPY ([4]; rate 0.0313 kg/ha): 0.0
Herbicidal rating SAGPY ([4]; rate 0.0625 kg/ha): 0.0
Herbicidal rating SAGPY ([4]; rate 0.1250 kg/ha): 5.0
Herbicidal rating SAGPY ([4]; rate 0.2500 kg/ha): 5.0
SETVI herbicidal rating ([5]; rate 0.0156 kg/ha): 0.0
SETVI herbicidal rating ([5]; rate 0.0313 kg/ha): 0.0
SETVI herbicidal rating ([5]; rate 0.0625 kg/ha): 0.0
Herbicidal rating ECHORC ([6]; 0.0313 kg/ha): 4.0
Herbicidal rating ECHORC ([6]; 0.0625 kg/ha): 6.0
Herbicidal rating ECHORC ([6]; 0.1250 kg/ha): 7.0
Herbicidal rating ECHORC ([6]; 0.2500 kg/ha): 9.0
Preemergence herbicidal rating ZEAMX ([7]; rate 0.0156 kg/ha): 0.0
Preemergence herbicidal rating ZEAMX ([7]; rate 0.0313 kg/ha): 0.0
ZEAMX preemergence herbicidal rating ([7]; rate 0.0625 kg/ha): 6.0
ZEAMX preemergence herbicidal rating ([7]; rate 0.1250 kg/ha): 8.0
ZEAMX preemergence herbicidal rating ([7]; rate 0.2500 kg/ha): 9.0
Herbicidal rating CYPIR ([8]; rate 0.0313 kg/ha): 0.0
Herbicidal rating CYPIR ([8]; rate 0.0625 kg/ha): 0.0
Herbicidal rating CYPIR ([8]; rate 0.1250 kg/ha): 0.0
Herbicidal rating CYPIR ([8]; rate 0.2500 kg/ha): 0.0
Preemergence herbicidal rating TRZAWR ([9]; rate 0.0156 kg/ha): 0.0
Preemergence herbicidal rating TRZAWR ([9]; rate 0.0313 kg/ha): 1.0
TRZAWR preemergence herbicidal rating ([9]; rate 0.0625 kg/ha): 2.0
TRZAWR preemergence herbicidal rating ([9]; rate 0.1250 kg/ha): 3.0
TRZAWR preemergence herbicidal rating ([9]; rate 0.2500 kg/ha): 6.0
Herbicidal rating ECHORC ([10]; rate 0.0313 kg/ha): 4.0
Herbicidal rating ECHORC ([10]; rate 0.0625 kg/ha): 6.0
Herbicidal rating ECHORC ([10]; rate 0.1250 kg/ha): 7.0
Herbicidal rating ECHORC ([10]; rate 0.2500 kg/ha): 9.0
ZEAMX herbicidal rating ([11]; rate 0.0156 kg/ha): 3.5
ZEAMX herbicidal rating ([11]; rate 0.0313 kg/ha): 5.5
ZEAMX herbicidal rating ([11]; rate 0.0625 kg/ha): 7.0
Herbicidal rating CYPIR ([12]; 0.0313 kg/ha): 0.0
Herbicidal rating CYPIR ([12]; 0.0625 kg/ha): 0.0
Herbicidal rating CYPIR ([12]; 0.1250 kg/ha): 0.0
Herbicidal rating CYPIR ([12]; 0.2500 kg/ha): 0.0

Cn1c(C(F)(F)F)cc(=O)n(-c2cc(N=C3SCC(=O)N3Cc3ccccc3)c(Cl)cc2F)c1=O [Compound 26]
Preemergence herbicidal rating ECHCG ([1]; rate 0.0156 kg/ha): 0.0
Preemergence herbicidal rating ECHCG ([1]; rate 0.0313 kg/ha): 0.0
Preemergence herbicidal rating ECHCG ([1]; rate 0.0625 kg/ha): 0.0
Preemergence herbicidal rating ECHCG ([1]; rate 0.1250 kg/ha): 1.0
Preemergence herbicidal rating ECHCG ([1]; rate 0.2500 kg/ha): 2.0
ORYSAT herbicidal rating ([2]; rate 0.0156 kg/ha): 0.5
ORYSAT herbicidal rating ([2]; rate 0.0313 kg/ha): 1.0
ORYSAT herbicidal rating ([2]; rate 0.0625 kg/ha): 1.5
Preemergence herbicidal rating SETVI ([3]; rate 0.0156 kg/ha): 0.0
Preemergence herbicidal rating SETVI ([3]; rate 0.0313 kg/ha): 0.0
Preemergence herbicidal rating SETVI ([3]; rate 0.0625 kg/ha): 0.0
Preemergence herbicidal rating SETVI ([3]; rate 0.1250 kg/ha): 5.0
Preemergence herbicidal rating SETVI ([3]; rate 0.2500 kg/ha): 9.0
Herbicidal rating SAGPY ([4]; rate 0.0313 kg/ha): 0.0
Herbicidal rating SAGPY ([4]; rate 0.0625 kg/ha): 4.0
Herbicidal rating SAGPY ([4]; rate 0.1250 kg/ha): 5.0
Herbicidal rating SAGPY ([4]; rate 0.2500 kg/ha): 7.0
SETVI herbicidal rating ([5]; rate 0.0156 kg/ha): 0.0
SETVI herbicidal rating ([5]; rate 0.0313 kg/ha): 0.0
SETVI herbicidal rating ([5]; rate 0.0625 kg/ha): 0.0
Herbicidal rating ECHORC ([6]; 0.0313 kg/ha): 7.0
Herbicidal rating ECHORC ([6]; 0.0625 kg/ha): 9.0
Herbicidal rating ECHORC ([6]; 0.1250 kg/ha): 9.0
Herbicidal rating ECHORC ([6]; 0.2500 kg/ha): 9.0
Preemergence herbicidal rating ZEAMX ([7]; rate 0.0156 kg/ha): 0.0
Preemergence herbicidal rating ZEAMX ([7]; rate 0.0313 kg/ha): 0.0
Preemergence herbicidal rating ZEAMX ([7]; rate 0.0625 kg/ha): 2.0
Preemergence herbicidal rating ZEAMX ([7]; rate 0.1250 kg/ha): 4.0
Preemergence herbicidal rating ZEAMX ([7]; rate 0.2500 kg/ha): 5.0
Herbicidal rating CYPIR ([8]; rate 0.0313 kg/ha): 2.0
Herbicidal rating CYPIR ([8]; rate 0.0625 kg/ha): 4.0
Herbicidal rating CYPIR ([8]; rate 0.1250 kg/ha): 7.0
Herbicidal rating CYPIR ([8]; rate 0.2500 kg/ha): 9.0
Preemergence herbicidal rating TRZAWR ([9]; rate 0.0156 kg/ha): 0.0
Preemergence herbicidal rating TRZAWR ([9]; rate 0.0313 kg/ha): 0.0
Preemergence herbicidal rating TRZAWR ([9]; rate 0.0625 kg/ha): 0.0
Preemergence herbicidal rating TRZAWR ([9]; rate 0.1250 kg/ha): 0.0
Preemergence herbicidal rating TRZAWR ([9]; rate 0.2500 kg/ha): 1.0
Herbicidal rating ECHORC ([10]; rate 0.0313 kg/ha): 7.0
Herbicidal rating ECHORC ([10]; rate 0.0625 kg/ha): 9.0
Herbicidal rating ECHORC ([10]; rate 0.1250 kg/ha): 9.0
Herbicidal rating ECHORC ([10]; rate 0.2500 kg/ha): 9.0
ZEAMX herbicidal rating ([11]; rate 0.0156 kg/ha): 3.5
ZEAMX herbicidal rating ([11]; rate 0.0313 kg/ha): 4.5
ZEAMX herbicidal rating ([11]; rate 0.0625 kg/ha): 5.5
Herbicidal rating CYPIR ([12]; 0.0313 kg/ha): 2.0
Herbicidal rating CYPIR ([12]; 0.0625 kg/ha): 4.0
Herbicidal rating CYPIR ([12]; 0.1250 kg/ha): 7.0
Herbicidal rating CYPIR ([12]; 0.2500 kg/ha): 9.0

Source: patent US20020137929A1, “1 - (3-heterocyclylphenyl) isothiourea, -isourea, -guanidine and -amidine herbicidal agents” (Intellectual Property Department, BASF Aktiengesellschaft, priority 1998, published 2002)
